Common to all, as to type: biochemical
One experiment concerns the target T1, human CerS6 (Homo sapiens, UniProt Q6ZMG9).
T1 construct: host or cells: HEK293
T1 sequence (Q6ZMG9 1-384): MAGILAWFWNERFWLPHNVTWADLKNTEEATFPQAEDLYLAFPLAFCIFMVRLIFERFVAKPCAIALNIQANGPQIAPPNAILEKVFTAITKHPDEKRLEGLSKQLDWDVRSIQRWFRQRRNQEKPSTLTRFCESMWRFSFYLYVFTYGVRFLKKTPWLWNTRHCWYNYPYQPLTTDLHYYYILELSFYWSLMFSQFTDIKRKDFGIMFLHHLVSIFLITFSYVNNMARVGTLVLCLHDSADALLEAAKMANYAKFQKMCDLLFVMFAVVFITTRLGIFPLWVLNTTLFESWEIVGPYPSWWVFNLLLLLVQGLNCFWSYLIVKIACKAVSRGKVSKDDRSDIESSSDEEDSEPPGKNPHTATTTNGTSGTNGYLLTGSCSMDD
The experiment in a line: Ceramide synthase assay, NBD-dihydrosphingosine, C16:0-CoA; HEK293 cells expressing human CerS6. The conditions noted are these: inhibitor range 10 nM–100 μM; read-out: IC50 hCerS6. The protocol:
Ceramide synthase assays were carried out using an HPLC-based assay with a fluorescent NBD-dihydrosphingosine substrate. All cell lines used for these assays were originally sourced from ATCC. […] Human CerS expression plasmids (pCMV6 plasmids from Origene) were transfected using FuGene-6 transfection reagent, and cells were harvested 24 h after transfection in 20 mM Hepes pH 7.4, 10 mM KCl, 1 mM dithiothreitol, 3 mM β-glycerophosphate, and EDTA-free complete protease inhibitor cocktail (Roche). Cells were sonicated in a Diagenode Bioruptor sonicating bath for 5 min, after which cell extracts were cleared by centrifugation at 800 × g for 10 min. Protein concentration in the supernatant was assayed using the bicinchoninic acid (BCA) assay, and the supernatant stored at −80 °C. COS cells were infected with lentiviral constructs expressing murine CerS1, 2, or 5, then homogenised as described above.
The reaction buffer consisted of 20 mM Hepes pH 7.4, 25 mM KCl, 2 mM MgCl2, 0.5 mM dithiothreitol, 0.1% fatty acid free BSA, 10 μM NBD-dihydrosphingosine and 50 μM fatty acid free BSA. C18:0-CoA was used as the fatty acyl substrate for CerS1 and CerS4; C24:1-CoA for CerS2; and C16:0-CoA for CerS5 and CerS6. All reactions were run in triplicate. Test inhibitors were added, after which reactions were started with the addition of 2.5–25 μg lysate protein (optimised depending on the particular CerS isoform being assayed). Assays were run for 30 min at 37 °C, and stopped with the addition of 200 μL methanol. The reaction mixture was transferred to a glass HPLC vial with 300 μL fused glass insert (Thermo Fisher Scientific) and NBD-dihydroceramide reaction products were analysed on a Thermo Scientific Surveyor HPLC connected to a Shimadzu RF-10AXL fluorescent detector (set to gain of 3). […] Data was acquired over a 12 min chromatography run using: solvent A, 0.2% formic acid, 2 mM ammonium formate in water; solvent B, 0.2% formic acid, 1 mM ammonium formate in methanol. The gradient started at 20:80 A/B, increasing to 5:95 A/B over 2 min, then to 100% B over 6 min. The gradient was then held at 100% B for 2 min, before re-equilibration to 20:80 A/B for a further 2 min. Peak areas were integrated using Xcalibur software (Thermo Fisher Scientific).

In another experiment the target is T2, human CerS2 (Homo sapiens, UniProt Q96G23).
T2 sequence (Q96G23 1-380): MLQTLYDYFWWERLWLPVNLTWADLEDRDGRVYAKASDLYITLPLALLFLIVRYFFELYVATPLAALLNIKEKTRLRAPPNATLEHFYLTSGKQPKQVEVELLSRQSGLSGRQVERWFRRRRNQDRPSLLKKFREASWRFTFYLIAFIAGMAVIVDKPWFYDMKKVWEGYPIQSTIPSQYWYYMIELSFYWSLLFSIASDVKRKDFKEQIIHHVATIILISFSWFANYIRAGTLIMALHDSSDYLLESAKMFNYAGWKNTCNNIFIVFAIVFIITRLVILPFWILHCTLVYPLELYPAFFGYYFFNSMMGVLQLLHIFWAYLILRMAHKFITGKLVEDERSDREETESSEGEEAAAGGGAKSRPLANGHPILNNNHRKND
The experiment in a line: Ceramide synthase assay, NBD-dihydrosphingosine, C24:1-CoA; HEK293 cells expressing human CerS2. The conditions noted are these: inhibitor range 10 nM–100 μM; read-out: IC50 hCerS2. The protocol:
(§1) Ceramide synthase assays were carried out using an HPLC-based assay with a fluorescent NBD-dihydrosphingosine substrate. All cell lines used for these assays were originally sourced from ATCC. […] Cells were sonicated in a Diagenode Bioruptor sonicating bath for 5 min, after which cell extracts were cleared by centrifugation at 800 × g for 10 min. Protein concentration in the supernatant was assayed using the bicinchoninic acid (BCA) assay, and the supernatant stored at −80 °C. COS cells were infected with lentiviral constructs expressing murine CerS1, 2, or 5, then homogenised as described above.
(§2) The reaction buffer consisted of 20 mM Hepes pH 7.4, 25 mM KCl, 2 mM MgCl2, 0.5 mM dithiothreitol, 0.1% fatty acid free BSA, 10 μM NBD-dihydrosphingosine and 50 μM fatty acid free BSA. C18:0-CoA was used as the fatty acyl substrate for CerS1 and CerS4; C24:1-CoA for CerS2; and C16:0-CoA for CerS5 and CerS6. All reactions were run in triplicate. Test inhibitors were added, after which reactions were started with the addition of 2.5–25 μg lysate protein (optimised depending on the particular CerS isoform being assayed). […] The reaction mixture was transferred to a glass HPLC vial with 300 μL fused glass insert (Thermo Fisher Scientific) and NBD-dihydroceramide reaction products were analysed on a Thermo Scientific Surveyor HPLC connected to a Shimadzu RF-10AXL fluorescent detector (set to gain of 3). […] The gradient started at 20:80 A/B, increasing to 5:95 A/B over 2 min, then to 100% B over 6 min. The gradient was then held at 100% B for 2 min, before re-equilibration to 20:80 A/B for a further 2 min. Peak areas were integrated using Xcalibur software (Thermo Fisher Scientific).

For the next experiment, the target named is T3, CerS1 (Homo sapiens, UniProt P27544).
T3 sequence (P27544 1-350): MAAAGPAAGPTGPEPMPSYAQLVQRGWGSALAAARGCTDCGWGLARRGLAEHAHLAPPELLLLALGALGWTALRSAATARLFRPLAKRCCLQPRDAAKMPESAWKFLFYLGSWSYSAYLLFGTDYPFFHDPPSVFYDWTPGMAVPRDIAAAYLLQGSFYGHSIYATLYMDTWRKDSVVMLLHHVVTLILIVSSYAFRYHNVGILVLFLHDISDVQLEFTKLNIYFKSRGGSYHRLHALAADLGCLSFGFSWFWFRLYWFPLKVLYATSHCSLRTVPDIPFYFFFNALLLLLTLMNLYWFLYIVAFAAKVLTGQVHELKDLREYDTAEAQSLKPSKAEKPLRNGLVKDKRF
The experiment in a line: Ceramide synthase assay, HPLC-based with fluorescent NBD-dihydrosphingosine, C18:0-CoA; extracts of HEK293 cells expressing human CerS1. Also noted: host or cells: HEK293. How it is done:
as §1, §2

[1] abbreviates: inhibitor range 10 nM–100 μM, read-out: IC50 hCerS1.

Where two headings read alike, the source gives them in different places.

Regarding `CCCC[C@@H](C)[C@@H](OC(=O)C[C@@H](CC(=O)O)C(=O)O)[C@H](C[C@@H](C)C[C@H](O)CCCC[C@@H](O)C[C@H](O)[C@H](C)N)OC(=O)C[C@@H](CC(=O)O)C(=O)O` [FB1, reference compound], the figures for the IC50 at human CerS6, at human CerS2 and at CerS1 (setting [1]) were 0.29 ± 0.05 µM, 0.15 ± 0.08 µM and 0.22 ± 0.05 µM, respectively. Also, the “IC50, all CerS isoforms” value on CerS1 (all CerS isoforms, in words) is listed as “sub-micromolar”.
`CCCCCCCCc1ccc(CCC(N)(CO)CO)cc1` [FTY720, reference compound]: the IC50 (usually the concentration needed to halve the response being measured) on human CerS6 stood at 5.8 ± 0.2 µM; on human CerS2, 19.1 ± 0.1 µM.
In the case of `C[C@@](N)(CO)CCc1ccc(OCc2ccccc2)cc1` [G024, (2S)-2-amino-4-(4′-benzyloxyphenyl)-2-methyl-1-butanol], the values for the IC50 at human CerS6, at human CerS2 and on CerS1 (setting [1]) were 8.5 ± 0.13 µM, 14.5 ± 0.09 µM and 6 ± 0.1 µM, respectively.
Consider `C[C@@](N)(CO)CCc1ccc(OCc2ccc(Cl)c(Cl)c2)cc1` [P053, (S)-2-amino-4-(4-(3,4-dichlorobenzyloxy)phenyl)-2-methylbutan-1-ol], for which the IC50 came to 11.4 ± 0.17 µM on human CerS6, 28.6 ± 0.15 µM at human CerS2, 0.54 ± 0.06 µM on CerS1 (setting [1]) and 0.5 µM at CerS1 (read-out: IC50 for inhibition of CerS1).

(Values after publication PMC6104039 (Nature Communications, 2018).)
